The record followed here is PMC8213057, “Targeting ALK2: An Open Science Approach to Developing Therapeutics for the Treatment of Diffuse Intrinsic Pontine Glioma” (Journal of Medicinal Chemistry, 2020).

One experiment deals with T1, GRK2 (Homo sapiens, UniProt P25098).
T1 sequence (P25098 1-689): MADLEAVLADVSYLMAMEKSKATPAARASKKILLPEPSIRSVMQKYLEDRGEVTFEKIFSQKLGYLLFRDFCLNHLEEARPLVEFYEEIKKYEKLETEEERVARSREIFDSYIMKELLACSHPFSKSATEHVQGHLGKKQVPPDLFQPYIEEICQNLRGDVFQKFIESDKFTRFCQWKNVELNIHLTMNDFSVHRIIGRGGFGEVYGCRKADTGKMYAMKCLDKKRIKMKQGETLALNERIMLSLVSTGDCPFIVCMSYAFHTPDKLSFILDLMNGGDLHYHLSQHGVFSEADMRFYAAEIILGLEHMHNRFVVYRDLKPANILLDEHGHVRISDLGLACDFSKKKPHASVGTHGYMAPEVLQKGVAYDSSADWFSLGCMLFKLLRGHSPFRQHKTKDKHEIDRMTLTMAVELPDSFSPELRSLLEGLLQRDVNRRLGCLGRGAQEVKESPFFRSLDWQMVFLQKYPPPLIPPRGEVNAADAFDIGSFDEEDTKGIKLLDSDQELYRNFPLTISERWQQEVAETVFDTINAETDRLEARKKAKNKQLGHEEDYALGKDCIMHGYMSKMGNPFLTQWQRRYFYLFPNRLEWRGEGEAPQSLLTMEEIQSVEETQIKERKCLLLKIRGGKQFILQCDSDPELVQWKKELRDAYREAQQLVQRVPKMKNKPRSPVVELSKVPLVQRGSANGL
Kind of experiment: biochemical. The conditions noted are these: read-out: % enzyme activity, 1 μM; Run 1, Run 2.

For a further experiment, the target named is T2, TEC (Homo sapiens, UniProt P42680).
T2 sequence (P42680 1-631): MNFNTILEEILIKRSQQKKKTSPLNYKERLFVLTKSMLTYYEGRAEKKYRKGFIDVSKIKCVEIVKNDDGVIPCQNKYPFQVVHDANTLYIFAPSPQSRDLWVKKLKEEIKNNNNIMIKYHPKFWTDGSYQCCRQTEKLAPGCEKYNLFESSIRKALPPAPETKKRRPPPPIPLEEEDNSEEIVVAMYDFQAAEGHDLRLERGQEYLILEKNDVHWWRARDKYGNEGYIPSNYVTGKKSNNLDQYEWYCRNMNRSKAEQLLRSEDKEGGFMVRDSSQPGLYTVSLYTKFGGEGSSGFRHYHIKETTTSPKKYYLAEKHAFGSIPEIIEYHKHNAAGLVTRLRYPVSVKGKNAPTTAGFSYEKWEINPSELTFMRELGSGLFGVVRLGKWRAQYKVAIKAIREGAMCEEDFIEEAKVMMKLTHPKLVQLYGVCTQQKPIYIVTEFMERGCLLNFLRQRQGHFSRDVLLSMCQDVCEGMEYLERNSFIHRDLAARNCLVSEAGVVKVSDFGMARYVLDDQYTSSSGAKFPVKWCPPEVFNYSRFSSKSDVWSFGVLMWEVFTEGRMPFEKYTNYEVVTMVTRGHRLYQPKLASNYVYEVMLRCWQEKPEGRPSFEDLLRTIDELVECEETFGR
The conditions noted are these: 1 μM; Run 1, Run 2.

In the next experiment the target is VRK2 (Homo sapiens, UniProt Q86Y07). Particulars: 1 μM; Run 1, Run 2.
The next experiment has as its target PAK2 (Homo sapiens, UniProt Q13177). Particulars: 1 μM; Run 1, Run 2.
For another experiment, the target named is T3, MEK3 (Homo sapiens, UniProt P46734).
T3 sequence (P46734 1-347): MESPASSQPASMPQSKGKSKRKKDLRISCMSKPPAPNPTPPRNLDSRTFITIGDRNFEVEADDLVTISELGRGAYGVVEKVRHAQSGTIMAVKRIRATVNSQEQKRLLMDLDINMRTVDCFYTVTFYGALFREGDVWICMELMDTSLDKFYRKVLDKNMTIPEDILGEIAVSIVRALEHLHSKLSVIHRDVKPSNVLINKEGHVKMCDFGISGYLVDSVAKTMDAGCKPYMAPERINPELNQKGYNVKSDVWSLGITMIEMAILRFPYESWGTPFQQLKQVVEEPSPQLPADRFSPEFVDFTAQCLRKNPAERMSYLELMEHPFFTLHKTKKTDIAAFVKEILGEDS
As to the kind of experiment: biochemical. Particulars: read-out: % enzyme activity, 1 μM; Run 1, Run 2.

The target of the next experiment is T4, PRKX (Homo sapiens, UniProt P51817).
T4 sequence (P51817 1-358): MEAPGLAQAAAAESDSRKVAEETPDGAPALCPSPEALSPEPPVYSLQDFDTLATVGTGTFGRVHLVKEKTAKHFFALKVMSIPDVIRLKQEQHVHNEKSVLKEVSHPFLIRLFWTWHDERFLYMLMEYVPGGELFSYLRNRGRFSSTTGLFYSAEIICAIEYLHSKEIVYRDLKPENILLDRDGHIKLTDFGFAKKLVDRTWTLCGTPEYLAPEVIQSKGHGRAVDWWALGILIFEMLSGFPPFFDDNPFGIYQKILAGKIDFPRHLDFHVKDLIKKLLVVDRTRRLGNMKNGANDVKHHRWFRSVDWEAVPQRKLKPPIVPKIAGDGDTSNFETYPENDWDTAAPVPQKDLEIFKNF
Particulars: 1 μM; Run 1, Run 2.

A further experiment concerns the target CHK2 (Homo sapiens, UniProt O96017). Kind of experiment: biochemical. Particulars: read-out: % enzyme activity, 1 μM; Run 1, Run 2.
Another experiment addresses T5, ZAP70 (Homo sapiens, UniProt P43403).
T5 sequence (P43403 1-619): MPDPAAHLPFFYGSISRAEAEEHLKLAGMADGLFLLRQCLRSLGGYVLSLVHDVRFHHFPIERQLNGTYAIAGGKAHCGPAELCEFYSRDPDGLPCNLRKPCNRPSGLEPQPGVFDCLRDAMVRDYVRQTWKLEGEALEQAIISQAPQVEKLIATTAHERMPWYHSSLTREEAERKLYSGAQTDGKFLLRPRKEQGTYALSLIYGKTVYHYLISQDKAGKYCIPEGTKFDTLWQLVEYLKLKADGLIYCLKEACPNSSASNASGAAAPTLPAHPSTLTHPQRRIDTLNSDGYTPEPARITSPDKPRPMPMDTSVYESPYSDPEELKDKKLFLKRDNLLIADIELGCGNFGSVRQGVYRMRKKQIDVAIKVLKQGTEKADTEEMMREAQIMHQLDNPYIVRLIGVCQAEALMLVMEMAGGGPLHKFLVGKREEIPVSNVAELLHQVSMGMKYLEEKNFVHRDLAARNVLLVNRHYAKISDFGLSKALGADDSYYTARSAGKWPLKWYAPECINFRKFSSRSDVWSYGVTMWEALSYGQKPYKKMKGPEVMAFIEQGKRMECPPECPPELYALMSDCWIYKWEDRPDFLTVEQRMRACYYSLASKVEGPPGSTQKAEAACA
The conditions noted are these: 1 μM; Run 1, Run 2.

Values joined by “and” are separate entries in the source; they are usually repeats but may differ in a detail not shown here. Identical values can stand only once.

Sequence of CHK2 (O96017 whole entry): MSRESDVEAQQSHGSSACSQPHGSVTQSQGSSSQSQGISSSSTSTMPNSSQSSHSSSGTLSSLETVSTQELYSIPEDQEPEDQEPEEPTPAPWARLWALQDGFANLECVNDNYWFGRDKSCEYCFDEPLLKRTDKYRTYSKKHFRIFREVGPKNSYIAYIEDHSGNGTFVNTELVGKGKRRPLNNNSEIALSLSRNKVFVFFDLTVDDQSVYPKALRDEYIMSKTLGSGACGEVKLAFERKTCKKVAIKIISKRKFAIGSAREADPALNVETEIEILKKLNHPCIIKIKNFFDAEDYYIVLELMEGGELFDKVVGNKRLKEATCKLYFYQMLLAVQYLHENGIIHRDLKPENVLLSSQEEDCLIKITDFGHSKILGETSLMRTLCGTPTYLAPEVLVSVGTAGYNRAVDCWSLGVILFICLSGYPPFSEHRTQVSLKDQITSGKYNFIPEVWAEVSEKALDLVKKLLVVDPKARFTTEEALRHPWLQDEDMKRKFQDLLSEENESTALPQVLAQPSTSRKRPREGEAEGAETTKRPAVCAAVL
Sequence of PAK2 (Q13177 whole entry): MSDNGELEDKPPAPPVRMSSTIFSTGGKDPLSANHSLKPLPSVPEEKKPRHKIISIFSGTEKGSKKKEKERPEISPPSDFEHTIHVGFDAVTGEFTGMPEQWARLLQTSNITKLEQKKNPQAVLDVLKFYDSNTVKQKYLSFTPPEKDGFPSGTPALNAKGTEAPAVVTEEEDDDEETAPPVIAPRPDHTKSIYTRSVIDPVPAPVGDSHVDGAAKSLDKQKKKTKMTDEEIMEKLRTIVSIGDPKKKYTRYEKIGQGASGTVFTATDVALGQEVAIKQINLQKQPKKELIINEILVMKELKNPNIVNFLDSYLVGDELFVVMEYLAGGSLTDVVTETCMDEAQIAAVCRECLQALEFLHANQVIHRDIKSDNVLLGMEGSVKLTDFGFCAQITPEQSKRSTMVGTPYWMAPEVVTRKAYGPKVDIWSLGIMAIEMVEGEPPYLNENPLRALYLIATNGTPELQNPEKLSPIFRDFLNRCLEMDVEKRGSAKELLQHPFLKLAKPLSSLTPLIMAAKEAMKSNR
Sequence of VRK2 (Q86Y07 whole entry, species assumed): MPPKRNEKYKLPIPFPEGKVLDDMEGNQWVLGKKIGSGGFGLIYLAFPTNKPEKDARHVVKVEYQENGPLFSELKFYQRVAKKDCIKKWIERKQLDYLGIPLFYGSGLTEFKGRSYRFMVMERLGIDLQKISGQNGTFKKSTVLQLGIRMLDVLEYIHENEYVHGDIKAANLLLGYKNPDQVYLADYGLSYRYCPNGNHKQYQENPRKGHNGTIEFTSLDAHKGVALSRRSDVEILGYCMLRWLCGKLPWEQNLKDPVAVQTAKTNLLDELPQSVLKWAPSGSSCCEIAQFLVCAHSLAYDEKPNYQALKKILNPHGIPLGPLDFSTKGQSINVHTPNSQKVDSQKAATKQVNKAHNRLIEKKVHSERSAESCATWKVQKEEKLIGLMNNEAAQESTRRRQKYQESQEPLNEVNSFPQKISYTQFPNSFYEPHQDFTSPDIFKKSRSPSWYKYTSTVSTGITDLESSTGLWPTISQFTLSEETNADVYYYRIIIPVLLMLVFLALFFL

`COc1cc(-c2cncc(-c3ccc(N4CCN(C)CC4)cc3)c2C)cc(F)c1C(N)=O` [Compound 26a, 2-Fluoro-6-methoxy-4-(4-methyl-5-(4-(4-methylpiperazin-1-yl)phenyl)pyridin-3-yl)benzamide]: the remaining activity at 1 µM at GRK2 amounted to 105%; on MEK3, 102%; at CHK2, 99.7%. The “% enzyme activity” value at TEC is 107.42%; at VRK2 it was 87.47%; at PAK2, 100.35%; on PRKX, 99.24%; at ZAP70, 94.79%. The % enzyme activity at 1 μM with TNIK is -0.77% and -2.62%.

For the compound `COc1cc(-c2cncc(-c3ccc(N4C[C@@H](C)N(C)[C@@H](C)C4)cc3)c2C)cc(F)c1C(N)=O` [Compound 26c, 2-Fluoro-6-methoxy-4-(4-methyl-5-(4-((3R,5S)-3,4,5-trimethylpiperazin-1-yl)phenyl)pyridin-3-yl)benzamide], the remaining activity at 1 µM at GRK2 was found to be 101%; at MEK3, 101%; at CHK2, 102%. Moreover, the “% enzyme activity” value at TEC came out at 106.19%; on VRK2, 89.63%; on PAK2 it was 103.95%; on PRKX, 90.55%; at ZAP70, 98.47%. Besides, the % enzyme activity at 1 μM with TNIK was 4.85% and 3.92%.
